Values of other authors in patent US8133194B2 (Henry Ford Health System, priority 2006, dated 2012).

How the values were obtained:
[1] = ICU patients
[2] = as stated for pre-filter fluid pH
[3] = under normal conditions, equal to the renal plasma flow

Row | K(b) liver clearance of citrate [1] | pKa3 [2] | PAH clearance [3] | SMILES
1 | 0.2 to 0.5 L/min | 6.3 | – | O=C(O)CC(O)(CC(=O)O)C(=O)O [Citrate]
2 | – | – | up to 0.6 L/minute | Nc1ccc(C(=O)NCC(=O)O)cc1 [PAH, para-amino-hippuric acid]
